{"source": "patent US10975352B2", "about": "“Methods of enhancing cell survival of stem cells” (The Scripps Research Institute, priority 2008, dated 2021)", "key": {"[1]": {"test_system": "primary human pancreatic islets/beta cells", "experiment": "Cell death of dispersed primary human pancreatic islets/beta cells", "format": "cell-based", "details": "plate coated with matrigel or laminin; 1-2 mM in media", "experimental": "For example, the inventors dispersed primary human pancreatic islets/beta cells plated as single cells onto a tissue culture plate that was coated with matrigel or laminin. […] Accordingly, in some embodiments, a compound of the present invention is administered to an individual in need of pancreatic beta and/or islet cells, wherein administration of the compound results in an increase in the number of beta or islet cells in the individual."}, "[2]": {"test_system": "mouse P1 cortical explants", "experiment": "Axon outgrowth from mouse P1 cortical explants", "format": "cell-based", "details": "3 μM; added 20 minutes after plating; 4 days in culture; DMSO control", "experimental": "Compounds of formula I and III (i.e., Tvz and Ptn) are effective at promoting axonal regeneration and functional recovery in injured central nervous system. […] Tzv (3 μM) was tested on mouse P1 cortical explants, with axon outgrowth as an outcome read-out. Tzv was added to the medium 20 minutes after plating, with DMSO as a control. […] Accordingly, in some embodiments, a compound of the present invention is administered to an individual having a central nervous system injury or who is in need or would otherwise benefit from axonal regeneration."}, "[3]": {"test_system": "E-cadherins, EGFR1 and ERB2", "experiment": "Immunoprecipitation of E-cadherins with EGFR1 and Erb2", "format": "cell-based, human", "from_the_text": "Interplay between physical/structural environment and growth factor plays a very important role in cell fate regulation (Comoglio, P. M., Boccaccio, C., & Trusolino, L., Curr Opin Cell Biol 15 (5):565-571 (2003)). To examine whether growth factors are involved in integrin-mediated hESC survival, we treated dissociated hESCs with Tzv or Ptn together with individual highly specific growth factor receptor inhibitors. […] Similarly inhibition of FGFR, IGFR, EGFR1 or Erb2 also greatly abolished Tzv-induced hESC survival in suspension culture.\nALP detection kit and integrin antibodies were from Chemicon. AG825 (Erb2 inhibitor), AG1478 (EGFR inhibitor), PPP (IGFR1 inhibitor) were purchased from Calbiochem. Antibodies raised against the intracytoplasmic tail of E-cadherins (Transduction Laboratories, Lexington, Ky.) were used for immunoprecipitation. The antibody TS2/16 was from Pierce. Antibodies to the extracellular domain of E-cadherin molecule were from Zymed (Carlsbad). Antibodies against extracellular signal-regulated kinase/MAPK, EGFR1, ERB2, GADPH and phosphorylated form of AKT were from Cell Signaling. Mouse monoclonal anti-phosphotyrosine (4G-10 clone) was from Upstate Biotechnology. Ptn and Tzv were added to culture medium at 2 μM."}}, "data": [{"compound": "O=C(NCc1ccccc1)c1csc(Nc2ccncn2)n1", "note": "[Tzv, N-benzyl-2-(pyrimidin-4-ylamino)thiazole-4-carboxamide]", "values": [{"measurement": "cell death of single primary beta cells", "setting": "[1]", "result": "cell death was inhibited"}, {"measurement": "axon outgrowth", "setting": "[2]", "result": "dramatic effect in promoting axon outgrowth"}, {"measurement": "binding of E-cadherins to EGFR1 and ERB2", "setting": "[3]", "result": "induced binding of E-cadherins to EGFR1 and ERB2"}]}]}
